The source of these data is US20230000842A1, “METHODS OF TREATING CARTILAGE DISORDERS THROUGH INHIBITION OF CLK AND DYRK” (SAMUMED, LLC, priority 2019, published 2023).

Assay [1] concerns primary human mesenchymal stem cells (hMSCs). Nature of the assay: Chondrogenesis screening using primary human mesenchymal stem cells. Conditions: Homo sapiens, Mesenchymal stem cells, hMSC chondrogenesis; for EC50: concentration required to induce 50% levels of chondrogenesis with TGF-β3 as positive control, read-out: Conc (nM) of 50% TGF-β3 activity; for Emax: maximum activity relative to TGF-β3 (10 ng/mL) positive control, read-out: Max. Activity as % TGF-β3 activity. Format: cell-based. The method, boiled down:
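Derived values are EC50 for 50% chondrogenesis, maximal activity and the dose giving it. These come from nodule area in passage 3–6 primary hMSCs, expressed as fold change over the mean of 3 same-plate DMSO wells, 2–3 replicates per concentration. TGF-β3 served as positive control.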

In a further assay the target is CLK3 kinase (Homo sapiens, UniProt P49761). As to the kind of experiment: CLK3 kinase activity assay (Z-lyte FRET).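 Further: kinase activity read as coumarin/fluorescein emission ratio by FRET, unphosphorylated peptide as 0% and phosphorylated peptide as 100% control, values from non-linear regression of dose-response curves.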 Format: biochemical. Conditions: Z-lyte Ser/Thr 18 peptide, 156 μM ATP, 1 h at room temperature.
A further assay addresses CLK2 kinase (Homo sapiens, UniProt P49760). As to the kind of experiment: CLK2 kinase activity assay (Z-lyte FRET).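 Further: FRET read-out as coumarin to fluorescein emission ratio, unphosphorylated peptide as 0% and phosphorylated peptide as 100% controls, duplicate reactions, non-linear regression fit of dose-response curves.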 The class given is biochemical. The settings on record: Z-lyte Ser/Thr 6 peptide, 60 μM ATP, 1 h at room temperature.
The subject of assay [2] is Wnt pathway activity (SW480 colon carcinoma cells stably expressing the Sp5-Luc reporter). Nature of the assay: Wnt pathway activity screening assay (Sp5-Luc reporter gene assay). Conditions: Homo sapiens, SW480, Table 4; SW480 cells stably expressing Sp5-Luc reporter, 10-point dose-response from 10 μM, 36 to 48 hours. A general note: A reporter such as luciferase makes a cellular process visible.

Chain of CLK3 kinase (P49761 whole entry): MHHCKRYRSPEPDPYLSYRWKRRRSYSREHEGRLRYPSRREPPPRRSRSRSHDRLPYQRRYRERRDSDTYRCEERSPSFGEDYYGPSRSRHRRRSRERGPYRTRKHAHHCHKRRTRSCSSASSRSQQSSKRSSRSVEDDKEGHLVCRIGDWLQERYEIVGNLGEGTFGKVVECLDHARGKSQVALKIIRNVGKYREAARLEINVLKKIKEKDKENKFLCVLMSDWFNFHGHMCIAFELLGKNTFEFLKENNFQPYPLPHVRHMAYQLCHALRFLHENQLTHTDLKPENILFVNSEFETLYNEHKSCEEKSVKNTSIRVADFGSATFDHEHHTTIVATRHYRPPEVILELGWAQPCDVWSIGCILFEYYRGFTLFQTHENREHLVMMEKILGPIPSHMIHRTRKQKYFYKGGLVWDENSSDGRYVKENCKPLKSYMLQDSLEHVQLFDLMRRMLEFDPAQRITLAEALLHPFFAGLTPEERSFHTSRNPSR
Chain of CLK2 kinase (P49760 whole entry): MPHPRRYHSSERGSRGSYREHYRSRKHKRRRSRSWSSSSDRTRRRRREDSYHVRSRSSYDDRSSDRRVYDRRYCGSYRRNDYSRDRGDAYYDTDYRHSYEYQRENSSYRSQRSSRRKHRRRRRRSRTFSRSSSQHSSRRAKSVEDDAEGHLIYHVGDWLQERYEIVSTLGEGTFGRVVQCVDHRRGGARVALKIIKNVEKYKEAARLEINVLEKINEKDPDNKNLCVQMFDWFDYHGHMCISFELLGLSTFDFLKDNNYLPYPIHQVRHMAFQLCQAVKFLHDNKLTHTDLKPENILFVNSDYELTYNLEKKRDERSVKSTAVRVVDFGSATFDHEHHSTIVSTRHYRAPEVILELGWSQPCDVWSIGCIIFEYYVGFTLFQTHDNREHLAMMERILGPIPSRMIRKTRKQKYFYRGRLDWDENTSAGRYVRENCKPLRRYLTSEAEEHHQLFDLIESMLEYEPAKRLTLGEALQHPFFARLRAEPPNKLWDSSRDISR

In the case of `CC(C)(C)C(=O)Nc1cncc(-c2ccc3[nH]nc(-c4nc5c(-c6ccc(F)cc6)cncc5[nH]4)c3c2)c1` [compound 161], the EC50 was determined as 100 nM in assay [1], 0.105 µM at CLK3 kinase, 0.017 µM on CLK2 kinase and 0.004 µM in assay [2]. Moreover, the Emax in assay [1] worked out at 128%.
In the case of `CN1CCN(c2cncc3[nH]c(-c4n[nH]c5ccc(-c6cncc(NC(=O)CC7CCNCC7)c6)cc45)cc23)CC1` [compound 485], the Emax in assay [1] turned out to be 289%. Further, the values for the EC50 (at CLK3 kinase; on CLK2 kinase; in assay [2]) were 0.303 µM, 0.004 µM and greater than 10 µM, respectively.
For the compound `Nc1cncc(-c2cnc3[nH]nc(-c4cc5c(-c6ccncc6)cncc5[nH]4)c3c2)c1` [compound 379], in assay [1], the Emax was 31.5%. In addition, the EC50 is 0.069 µM on CLK3 kinase, 0.004 µM on CLK2 kinase and greater than 10 µM in assay [2].
The matching figures for `CCCCC(=O)Nc1cncc(-c2ccc3[nH]nc(-c4cc5cccnc5[nH]4)c3c2)c1` [compound 420]: 34.1%, 0.344 µM, 0.011 µM and 0.324 µM.
Regarding `Cc1ncc(-c2ccc3[nH]nc(-c4nc5c(-c6cccc(F)c6)cccc5[nH]4)c3n2)n1C` [compound 158], the EC50 was 10 nM in assay [1], 0.083 µM at CLK3 kinase, 0.003 µM at CLK2 kinase and 0.15 µM in assay [2]. For the same compound, in assay [1], the Emax turned out to be 112%.
Regarding `Cc1ccc(-c2cncc3[nH]c(-c4n[nH]c5ccc(-c6cncc(N)c6)nc45)nc23)s1` [compound 276], the EC50 in assay [1] turned out to be 30 nM; at CLK3 kinase, 0.009 µM; on CLK2 kinase, 0.002 µM; in assay [2] it was 0.0407 µM. For the same compound, the Emax in assay [1] worked out at 79.4%.
The corresponding values for `CC(C)C(=O)Nc1cncc(-c2cc3c(-c4cc5c(-c6cc(F)cc(CNS(C)(=O)=O)c6)nccc5[nH]4)n[nH]c3cn2)c1` [compound 520] are 30 nM, 0.075 µM, 0.003 µM, greater than 10 µM and 79.5%.
The corresponding values for `CCCCC(=O)Nc1cncc(-c2ccc3[nH]nc(-c4cc5c(N6CCCCC6)nccc5[nH]4)c3n2)c1` [compound 459] are 30 nM, 0.269 µM, 0.013 µM, 4.05 µM and 54.5%.
With `O=C(Nc1cncc(-c2cc3c(-c4cc5cccnc5[nH]4)n[nH]c3cn2)c1)C1CC1` [compound 427], the Emax in assay [1] came out at 17.7%. Also, the EC50 was 9.84 µM at CLK3 kinase, 0.009 µM on CLK2 kinase and greater than 10 µM in assay [2].
On to `Cc1ccc(-c2nccc3[nH]c(-c4n[nH]c5cnc(-c6cncc(N)c6)cc45)nc23)s1` [compound 273], for which the EC50 in assay [1] was found to be 10 nM; at CLK3 kinase it was 0.029 µM; at CLK2 kinase, 0.004 µM; in assay [2], 0.0092 µM. In assay [1], the Emax stood at 259%.
The corresponding values for `O=C(Nc1cncc(-c2cnc3[nH]nc(-c4cc5c(-c6ccccc6F)nccc5[nH]4)c3c2)c1)C1CC1` [compound 328] are 30 nM, 0.047 µM, 0.006 µM, 0.321 µM and 78.1%.
Take `CCNCc1cncc(-c2ccc3[nH]nc(-c4nc5c(-c6cc(F)cc(NCCN(C)C)c6)nccc5[nH]4)c3n2)c1` [compound 285]: the Emax in assay [1] worked out at 35.6%. The values for the EC50 (on CLK3 kinase; at CLK2 kinase; in assay [2]) were 0.09 µM, 0.001 µM and greater than 10 µM, respectively.
With `c1cncc(-c2cnc3[nH]nc(-c4nc5c(-c6cccs6)cccc5[nH]4)c3c2)c1` [compound 254], the Emax in assay [1] was determined as 41.6%. Moreover, the EC50 is 0.043 µM on CLK3 kinase, 0.003 µM on CLK2 kinase and 0.012 µM in assay [2].
On to `CC(C)(C)C(=O)Nc1cncc(-c2cnc3[nH]nc(-c4nc5c(-c6ccoc6)cncc5[nH]4)c3c2)c1` [compound 232], for which the EC50 turned out to be 30 nM in assay [1], 0.143 µM on CLK3 kinase, 0.005 µM on CLK2 kinase and 0.07 µM in assay [2]. Also, the Emax in assay [1] came out at 144%.
Take `CN(C)CCNc1cc(F)cc(-c2cccc3[nH]c(-c4n[nH]c5ccc(-c6cncnc6)nc45)cc23)c1` [compound 516]: the EC50 stood at 10 nM in assay [1], 0.063 µM on CLK3 kinase, 0.005 µM at CLK2 kinase and 0.42 µM in assay [2]. In addition, the Emax in assay [1] amounted to 181%.
`CN1CCN(c2ccc(NC(=O)c3n[nH]c4ccc(-c5cncc(CN6CCC(F)(F)C6)c5)cc34)cn2)CC1` [compound 73]: the EC50 in assay [1] was found to be 30 nM; on CLK3 kinase it was 0.011 µM; on CLK2 kinase it was 0.001 µM; in assay [2], 0.004 µM. Besides, the Emax in assay [1] was found to be 80.9%.
The matching figures for `COc1cncc(-c2cc3c(-c4nc5c(-c6cccc(F)c6)cncc5[nH]4)n[nH]c3cn2)c1` [compound 147]: 300 nM, 0.493 µM, 0.009 µM, 0.0313 µM and 140%.
In the case of `CC(C)CC(=O)Nc1cncc(-c2cnc3[nH]nc(-c4cc5c(-c6cc(F)cc(CNS(C)(=O)=O)c6)cncc5[nH]4)c3c2)c1` [compound 523], in assay [1], the Emax came out at 45.5%. The values for the EC50 (at CLK3 kinase; at CLK2 kinase; in assay [2]) were 0.081 µM, 0.009 µM and 2.51 µM, respectively.
With `c1cncc(-c2ccc3[nH]nc(-c4cc5c(-c6cccnc6)ccnc5[nH]4)c3n2)c1` [compound 344], the EC50 in assay [1] was 100 nM; on CLK3 kinase, 9.84 µM; at CLK2 kinase, 0.003 µM; in assay [2] it was greater than 10 µM. Also, in assay [1], the Emax was found to be 59.2%.
Consider `c1cnc2[nH]c(-c3n[nH]c4ccc(-c5cncc(CN6CCCCC6)c5)cc34)cc2c1` [compound 450], for which the Emax in assay [1] is 50.8%. For the same compound, the EC50 on CLK3 kinase was 0.085 µM; on CLK2 kinase, 0.003 µM; in assay [2], 1.67 µM.
The matching figures for `Fc1cccc(-c2cncc3[nH]c(-c4n[nH]c5ncc(-c6cccnc6)cc45)cc23)c1` [compound 300]: 35.6%, 0.122 µM, 0.008 µM and 0.573 µM.
For the compound `COc1cccc(-c2ccnc3[nH]c(-c4n[nH]c5ccc(-c6cccnc6)nc45)nc23)c1` [compound 297], the EC50 in assay [1] was 100 nM; at CLK3 kinase it was 0.084 µM; on CLK2 kinase it was 0.001 µM; in assay [2] it was 1.61 µM. In addition, in assay [1], the Emax came out at 50.5%.
`Fc1cccc(-c2ccnc3[nH]c(-c4n[nH]c5ncc(-c6cn[nH]c6)cc45)nc23)c1` [compound 153]: the EC50 came to 100 nM in assay [1], 0.093 µM at CLK3 kinase, 0.011 µM at CLK2 kinase and 0.0302 µM in assay [2]. Further, the Emax in assay [1] is 110%.
With `Nc1cncc(-c2ccc3[nH]nc(-c4nc5c(-c6ccccc6F)cccc5[nH]4)c3n2)c1` [compound 166], the EC50 in assay [1] was found to be 30 nM; on CLK3 kinase, 0.209 µM; on CLK2 kinase it was 0.003 µM; in assay [2], 1.07 µM. Besides, in assay [1], the Emax stood at 81.8%.
As for `CN(C)CCNc1cc(F)cc(-c2ccnc3[nH]c(-c4n[nH]c5ccc(-c6cncc(CN7CCCCC7)c6)nc45)cc23)c1` [compound 514], in assay [1], the Emax worked out at 48.5%. Also, the EC50 at CLK3 kinase stood at 0.049 µM; at CLK2 kinase it was 0.004 µM; in assay [2], 1.27 µM.
